# Test results as given in US11986532B2 (Arvinas Operations, Inc., priority 2021, dated 2024).
# Read-outs that look alike come from different tables or passages of the source.
# Target: T1, BCL6 (Homo sapiens, UniProt P41182)
# T1 construct: endogenous in cells; host or cells: T47D breast cancer epithelial cells
# Assay: Immunofluorescence protocol for high content imaging of BCL6 (degradation) in T47D cells, 3 days compound treatment
# Assay type: cell-based
# Settings: for DC50: read-out: Mean DC50 (nM)* category; for Dmax: read-out: Mean Dmax (%)** category
# Method in brief: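 Cells are seeded to reach ~70-90% confluence at endpoint, then dosed next day with compound at a final top concentration of 0.1 or 1 μM (11 points, 3-fold). After 3 days, BCL6 is detected by immunofluorescence and quantified by high-content imaging.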
# [1] = T47D cells, 3 days compound treatment
DC50 [1],Dmax [1],Structure (SMILES),Dmax (T47D),DC50
,,"CNC(=O)COc1cc2cc(Nc3nc(N4CCC(O[C@H]5C[C@H](N6CCC(c7ccc8c(c7F)CN(C7CCC(=O)NC7=O)C8=O)CC6)C5)CC4)ncc3Cl)ccc2n(C2CCCCC2)c1=O (stereo partly drawn) [Compound 411, 2-({6-[(5-chloro-2-{4-[(1r,3r)-3-{4-[2-(2,6-dioxopiperidin-3-yl)-4-fluoro-1-oxo-2,3-dihydro-1H-isoindol-5-yl]piperidin-1-yl}cyclobutoxy]piperidin-1-yl}pyrimidin-4-yl)amino]-1-cyclohexyl-2-oxo-1,2-dihydroquinolin-3-yl}oxy)-N-methylacetamide]",≥ 70%,< 10 nM
50 to 100 nM,≥ 70%,"CNC(=O)COc1cc2cc(Nc3nc(N4CCN(C[C@H]5C[C@H](N6CCC(c7ccc8c(c7)C(=O)N(C7CCC(=O)NC7=O)C8=O)CC6)C5)CC4)ncc3Cl)ccc2n(C(C)C)c1=O (stereo partly drawn) [Compound 41, 2-[(6-{[5-chloro-2-(4-{[(1r,3r)-3-{4-[2-(2,6-dioxopiperidin-3-yl)-1,3-dioxo-2,3-dihydro-1H-isoindol-5-yl]piperidin-1-yl}cyclobutyl]methyl}piperazin-1-yl)pyrimidin-4-yl]amino}-2-oxo-1-(propan-2-yl)-1,2-dihydroquinolin-3-yl)oxy]-N-methylacetamide]",,
,,"CNC(=O)COc1cc2cc(Nc3nc(N4CCC(O[C@H]5C[C@H](N6CCN(c7ccc8c(c7F)CN([C@H]7CCC(=O)NC7=O)C8=O)[C@H](C)C6)C5)CC4)ncc3Cl)ccc2n(C(C)C)c1=O [Compound 394, 2-({6-[(5-chloro-2-{4-[(1r,3r)-3-[(3R)-4-{2-[(3S)-2,6-dioxopiperidin-3-yl]-4-fluoro-1-oxo-2,3-dihydro-1H-isoindol-5-yl}-3-methylpiperazin-1-yl]cyclobutoxy]piperidin-1-yl}pyrimidin-4-yl)amino]-2-oxo-1-(propan-2-yl)-1,2-dihydroquinolin-3-yl}oxy)-N-methylacetamide]",≥ 70%,< 10 nM
< 10 nM,,"CNC(=O)COc1cc2cc(Nc3nc(N4CCN(CC5C6CN(c7cccc8c7C(=O)N(C7CCC(=O)NC7=O)C8=O)CC56)CC4)ncc3Cl)ccc2n(C(C)C)c1=O (stereo not drawn) [Compound 156, 2-{[6-({5-chloro-2-[4-({3-[2-(2,6-dioxopiperidin-3-yl)-1,3-dioxo-2,3-dihydro-1H-isoindol-4-yl]-3-azabicyclo[3.1.0]hexan-6-yl}methyl)piperazin-1-yl]pyrimidin-4-yl}amino)-2-oxo-1-(propan-2-yl)-1,2-dihydroquinolin-3-yl]oxy}-N-methylacetamide]",,
,,"CNC(=O)COc1cc2cc(Nc3nc(N4CCC(O[C@H]5C[C@H](N6CCC(c7cc8c(cc7Cl)C(=O)N(C7CCC(=O)NC7=O)C8)CC6)C5)CC4)ncc3Cl)ccc2n(C(C)C)c1=O (stereo partly drawn) [Compound 329, 2-({6-[(5-chloro-2-{4-[(1r,3r)-3-{4-[6-chloro-2-(2,6-dioxopiperidin-3-yl)-1-oxo-2,3-dihydro-1H-isoindol-5-yl]piperidin-1-yl}cyclobutoxy]piperidin-1-yl}pyrimidin-4-yl)amino]-2-oxo-1-(propan-2-yl)-1,2-dihydroquinolin-3-yl}oxy)-N-methylacetamide]",50 to 70%,< 10 nM
,,"CNC(=O)COc1cc2cc(Nc3nc(N4CCC(O[C@H]5C[C@H](N6CCN(c7ccc8c(c7)C(=O)N(C7CCC(=O)NC7=O)C8=O)C(C)(C)C6)C5)CC4)ncc3Cl)ccc2n(C(C)C)c1=O (stereo partly drawn) [Compound 367, 2-({6-[(5-chloro-2-{4-[(1r,3r)-3-{4-[2-(2,6-dioxopiperidin-3-yl)-1,3-dioxo-2,3-dihydro-1H-isoindol-5-yl]-3,3-dimethylpiperazin-1-yl}cyclobutoxy]piperidin-1-yl}pyrimidin-4-yl)amino]-2-oxo-1-(propan-2-yl)-1,2-dihydroquinolin-3-yl}oxy)-N-methylacetamide]",≥ 70%,10 to 50 nM
< 10 nM,50 to 70%,"CNC(=O)COc1cc2cc(Nc3nc(N4CCC5(CC4)CC(C(=O)N4CCC(c6cccc7c6CN(C6CCC(=O)NC6=O)C7=O)CC4)C5)ncc3Cl)ccc2n(C(C)C)c1=O (stereo not drawn) [Compound 19, 2-[(6-{[5-chloro-2-(2-{4-[2-(2,6-dioxopiperidin-3-yl)-1-oxo-2,3-dihydro-1H-isoindol-4-yl]piperidine-1-carbonyl}-7-azaspiro [3.5]nonan-7-yl)pyrimidin-4-yl]amino}-2-oxo-1-(propan-2-yl)-1,2-dihydroquinolin-3-yl)oxy]-N-methylacetamide]",,
< 10 nM,50 to 70%,"CNC(=O)COc1cc2cc(Nc3nc(N4CCN(CC5CCN(c6cc(OC)cc7c6CN(C6CCC(=O)NC6=O)C7=O)CC5)CC4)ncc3Cl)ccc2n(C(C)C)c1=O (stereo not drawn) [Compound 119, 2-{[6-({5-chloro-2-[4-({1-[2-(2,6-dioxopiperidin-3-yl)-6-methoxy-1-oxo-2,3-dihydro-1H-isoindol-4-yl]piperidin-4-yl}methyl)piperazin-1-yl]pyrimidin-4-yl}amino)-2-oxo-1-(propan-2-yl)-1,2-dihydroquinolin-3-yl]oxy}-N-methylacetamide]",,
,,"CNC(=O)COc1cc2cc(Nc3nc(N4CCC(O[C@H]5C[C@H](N6CCC(c7ccc8c(c7F)CN(C7CCC(=O)NC7=O)C8=O)CC6)C5)CC4)ncc3Cl)ccc2n(CC(C)C)c1=O (stereo partly drawn) [Compound 425, 2-({6-[(5-chloro-2-{4-[(1r,3r)-3-{4-[2-(2,6-dioxopiperidin-3-yl)-4-fluoro-1-oxo-2,3-dihydro-1H-isoindol-5-yl]piperidin-1-yl}cyclobutoxy]piperidin-1-yl}pyrimidin-4-yl)amino]-1-(2-methylpropyl)-2-oxo-1,2-dihydroquinolin-3-yl}oxy)-N-methylacetamide]",≥ 70%,< 10 nM
< 10 nM,50 to 70%,"CNC(=O)COc1cc2cc(Nc3nc(N4CCN(CC5CCN(c6ccc7c(c6)CN(C6CCC(=O)NC6=O)C7=O)CC5)CC4)ncc3Cl)ccc2n(C)c1=O (stereo not drawn) [Compound 67, 2-{[6-({5-chloro-2-[4-({1-[2-(2,6-dioxopiperidin-3-yl)-1-oxo-2,3-dihydro-1H-isoindol-5-yl]piperidin-4-yl}methyl)piperazin-1-yl]pyrimidin-4-yl}amino)-1-methyl-2-oxo-1,2-dihydroquinolin-3-yl]oxy}-N-methylacetamide]",,
,,"CNC(=O)COc1cc2cc(Nc3nc(N4CCC(O[C@H]5C[C@H](N6CCN(c7ccc8c(c7Cl)CN([C@@H]7CCC(=O)NC7=O)C8=O)[C@H](C)C6)C5)CC4)ncc3Cl)ccc2n(C(C)C)c1=O [Compound 268, 2-({6-[(5-chloro-2-{4-[(1r,3r)-3-[(3R)-4-{4-chloro-2-[(3R)-2,6-dioxopiperidin-3-yl]-1-oxo-3H-isoindol-5-yl}-3-methylpiperazin-1-yl]cyclobutoxy]piperidin-1-yl}pyrimidin-4-yl)amino]-1-isopropyl-2-oxoquinolin-3-yl}oxy)-N-methylacetamide]",≥ 70%,< 10 nM
≥ 100 nM,,"CNC(=O)COc1cc2cc(Nc3nc(N4CCOC5(CN(CC6CCN(c7cccc8c7C(=O)N(C7CCC(=O)NC7=O)C8=O)CC6)C5)C4)ncc3Cl)ccc2n(C(C)C)c1=O (stereo not drawn) [Compound 143, 2-{[6-({5-chloro-2-[2-({1-[2-(2,6-dioxopiperidin-3-yl)-1,3-dioxo-2,3-dihydro-1H-isoindol-4-yl]piperidin-4-yl}methyl)-5-oxa-2,8-diazaspiro[3.5]nonan-8-yl]pyrimidin-4-yl}amino)-2-oxo-1-(propan-2-yl)-1,2-dihydroquinolin-3-yl]oxy}-N-methylacetamide]",,
< 10 nM,50 to 70%,"CNC(=O)COc1cc2cc(Nc3nc(N4CCC(C(=O)N5CCC6(CCN(c7ccc8c(c7)CN(C7CCC(=O)NC7=O)C8=O)C6)C5)CC4)ncc3Cl)ccc2n(C(C)C)c1=O (stereo not drawn) [Compound 47, 2-[(6-{[5-chloro-2-(4-{7-[2-(2,6-dioxopiperidin-3-yl)-1-oxo-2,3-dihydro-1H-isoindol-5-yl]-2,7-diazaspiro[4.4]nonane-2-carbonyl}piperidin-1-yl)pyrimidin-4-yl]amino}-2-oxo-1-(propan-2-yl)-1,2-dihydroquinolin-3-yl)oxy]-N-methylacetamide]",,
,,"CC(C)n1c(=O)c(OCC(=O)N(C)O)cc2cc(Nc3nc(N4CCC(O[C@H]5C[C@H](N6CCC(c7ccc8c(c7F)CN(C7CCC(=O)NC7=O)C8=O)CC6)C5)CC4)ncc3Cl)ccc21 (stereo partly drawn) [Compound 265, 2-({6-[(5-chloro-2-{4-[(1r,3r)-3-{4-[2-(2,6-dioxopiperidin-3-yl)-4-fluoro-1-oxo-2,3-dihydro-1H-isoindol-5-yl]piperidin-1-yl}cyclobutoxy]piperidin-1-yl}pyrimidin-4-yl)amino]-2-oxo-1-(propan-2-yl)-1,2-dihydroquinolin-3-yl}oxy)-N-hydroxy-N-methylacetamide]",≥ 70%,< 10 nM

Structure (SMILES),DC50 [1],Dmax [1],Dmax (T47D),DC50
"CNC(=O)COc1cc2cc(Nc3nc(N4CCC(O[C@H]5C[C@H](N6CCN(c7ccc8c(n7)CN(C7CCC(=O)NC7=O)C8=O)[C@H](C)C6)C5)CC4)ncc3Cl)ccc2n(C(C)C)c1=O (stereo partly drawn) [Compound 198, 2-({6-[(5-chloro-2-{4-[(1r,3r)-3-[(3R)-4-[6-(2,6-dioxopiperidin-3-yl)-5-oxo-5H,6H,7H-pyrrolo[3,4-b]pyridin-2-yl]-3-methylpiperazin-1-yl]cyclobutoxy]piperidin-1-yl}pyrimidin-4-yl)amino]-2-oxo-1-(propan-2-yl)-1,2-dihydroquinolin-3-yl}oxy)-N-methylacetamide]",< 10 nM,≥ 70%,,
"CNC(=O)COc1cc2cc(Nc3nc(N4CCC(O[C@H]5C[C@H](N6CCN(c7ccc8c(c7C)C(=O)N(C7CCC(=O)NC7=O)C8=O)CC6)C5)CC4)ncc3Cl)ccc2n(C(C)C)c1=O (stereo partly drawn) [Compound 177, 2-({6-[(5-chloro-2-{4-[(1r,3r)-3-{4-[2-(2,6-dioxopiperidin-3-yl)-4-methyl-1,3-dioxoisoindol-5-yl]piperazin-1-yl}cyclobutoxy]piperidin-1-yl}pyrimidin-4-yl)amino]-1-isopropyl-2-oxoquinolin-3-yl}oxy)-N-methylacetamide]",< 10 nM,≥ 70%,,
